Measured values as given in patent US9005905B2, “Method of identifying transmembrane protein-interacting compounds” (Omeros Corporation, priority 2002, dated 2015).
Read-outs that look alike come from different tables or passages of the source.

What was measured:
Cys-LT2-NLS-GFP = target: T1, Cys-LT2-NLS-GFP (Homo sapiens, UniProt Q9NS75, D314R/E310K/N311K); assay: Cys-LT2-NLS-GFP translocation, HEK cells; type: cell-based; conditions: 10 micromolar
T1 construct: expressed in transfected cells; host or cells: HEK cells
T1 sequence (Q9NS75 1-346 E310K/N311K/D314R): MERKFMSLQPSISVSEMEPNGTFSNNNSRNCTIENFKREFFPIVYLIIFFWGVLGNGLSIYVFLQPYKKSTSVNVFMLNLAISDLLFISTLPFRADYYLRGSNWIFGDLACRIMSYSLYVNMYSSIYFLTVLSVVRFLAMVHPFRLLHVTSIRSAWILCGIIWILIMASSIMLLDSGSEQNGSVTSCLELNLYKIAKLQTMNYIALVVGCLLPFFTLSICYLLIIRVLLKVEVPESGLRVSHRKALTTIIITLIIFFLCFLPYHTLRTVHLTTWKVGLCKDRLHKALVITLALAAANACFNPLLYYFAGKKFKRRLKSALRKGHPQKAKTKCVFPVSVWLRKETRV
Method: The DNA encoding Cys-LT2-NLS-GFP (3 micrograms) was used to transfect HEK cells. These cells were treated with the cysteinyl leukotriene receptor antagonist, montelukast (10 micromolar). […] Control cells received no antagonist. The cells were examined by confocal microscopy.

[1] = target: mu and delta opioid receptors (Homo sapiens, UniProt P35372+P41143); conditions: cited from earlier work
M1-NLS-GFP = M1-NLS-GFP (Homo sapiens, UniProt P11229, A424K/D427R/R426K); conditions: 10 micromolar, 48 hours
Method: These cells were treated with iprotropium bromide (10 micromolar). The medium containing antagonist was replaced at 6, 22, 30 and 42 hours after transfection. Control cells received no antagonist treatment. The cells were examined by confocal microscopy.

D2-NLS-GFP = target: T2, D2-NLS-GFP (Homo sapiens, UniProt P14416, E432K/I431K/K435R/R434K); assay: D2-NLS-GFP translocation, HEK cells; type: cell-based
T2 construct: expressed in transfected cells; host or cells: HEK cells
Method: At 6, 22, 30 and 42 hours after transfection, the cells were treated with the antagonists. Cells were incubated 48 hrs after drug treatment and examined by confocal microscopy.

DAT-NLS-RFP = target: T3, DAT-NLS-RFP (Homo sapiens, UniProt Q01959, C581K/S582R/Y578K); assay: DAT-NLS-RFP trafficking to the nucleus, HEK cells; type: cell-based; conditions: 10 micromolar, 48 hours
T3 construct: The full length cDNA encoding the human dopamine transporter (hDAT) was amplified using DAT in pcDNA3 as template; expressed in transfected cells; host or cells: HEK cells
Method: HEK cells were transfected with a DNA construct encoding DAT-NLS-RFP (2 micrograms) and incubated for 48 hours. At 6, 22, 30 and 42 hours after transfection, the cells were treated with cocaine or amphetamine (final concentration 10 micromolar), or left untreated. The cells were examined by confocal microscopy.

5HT1B-NLS-GFP = target: T4, 5HT1B-NLS-GFP (Homo sapiens, UniProt P28222, D375K/E374K/Q378R); assay: 5HT1B-NLS-GFP translocation, HEK cells; type: cell-based; conditions: 10 micromolar, 48 hours
T4 construct: expressed in transfected cells; host or cells: HEK cells
Method: HEK cells were transfected with a DNA construct encoding the serotonin 5HT1B-NLS-GFP (2 micrograms). The cells were transfected with Ds-red-NUC to verify the localisation of the nucleus (1 microgram). Cells were treated with methysergide (10 micromolar), a serotonin receptor antagonist. […] Control cells received no antagonist. The cells were examined by confocal microscopy.

DAT-NLS-GFP = DAT-NLS-GFP (Homo sapiens, UniProt Q01959, C581K/S582R/Y578K); assay: DAT-NLS-GFP translocation, HEK cells; type: cell-based; conditions: 1 micromolar, 48 hours
Method: HEK cells were transfected with a DNA construct encoding DAT-NLS-GFP (2 micrograms) and incubated for 48 hours. […] The cells were examined by confocal microscopy.
HEK cells were transfected with a construct encoding DAT-NLS-GFP (2 micrograms) and incubated for 48 hours. […] The cells were examined by confocal microscopy.
Control HEK cells were transfected with DAT-NLS-GFP incubated for 48 hours and not treated with drug.

D1-NLS-GFP [2] = target: T5, D1-NLS-GFP (Homo sapiens, UniProt P21728, A340R/D336K/F337K/R338F); assay: D1-NLS-GFP (with D1-WT) translocation, antagonist dose response, HEK cells, confocal microscopy; type: cell-based; conditions: 48 hours
T5 construct: expressed in transfected cells; host or cells: HEK cells (HEK293T)
Method: Test compounds were prepared in a stock solution of 1 millimolar concentration and diluted in growth medium to achieve a final concentration ranging between 10 nanomolar and 10 micromolar when added to cell plates. Fresh compound-containing medium was added to cells at 6 hours, 22 hours, 30 hours and 42 hours after transfection.
Cells were visualised using the LSM510 Zeiss confocal laser microscope. GFP was visualised following excitation with the argon laser at 488 nm excitation wavelength and the DsRed was visualised following excitation with the helium neon laser at 543 nm wavelength for excitation. The confocal images were captured on disk and evaluated. In each experiment, multiple fields of cells (n=6-8 with 30-90 cells each) were counted and evaluated for localisation of the signal on the cell surface, in the cytoplasm and in the nucleus.
HEK cells were transfected with DNA encoding D1-NLS-GFP (2 micrograms), and D1-WT (6 micrograms) for 48 hours. […] The medium containing antagonist was changed at 6, 22, 30 and 42 hours after transfection. Control cells received no antagonist treatment.

D1-IC1-NLS-GFP = target: T6, D1-IC1-NLS-GFP (Homo sapiens, UniProt P21728, H53R/I49K/R50K/R52K); assay: D1-IC1-NLS-GFP trafficking, HEK cells; type: cell-based; conditions: 1 micromolar, 48 hours
T6 construct: expressed in transfected cells; host or cells: HEK cells
Text: (§1) Nuclei were visualised with DsRED-NUC (2 micrograms). The cells were examined by confocal microscopy.

D1-IC3-NLS-GFP = D1-IC3-NLS-GFP (Homo sapiens, UniProt P21728, M262K/S263K); assay: D1-IC3-NLS-GFP trafficking, HEK cells; type: cell-based; conditions: 10 micromolar to 100 nanomolar (four concentrations), 48 hours
Text: as §1

D1-2NLS-RFP = target: T7, D1-2NLS-RFP (Homo sapiens, UniProt P21728, A340R/A406K/D336K/E404K/E405R/F337K/R338F); assay: D1-2NLS-RFP trafficking, HEK cells; type: cell-based; conditions: 10 μM, 48 hours
T7 construct: expressed in transfected cells; host or cells: HEK cells
Method: By modifying the construct encoding D1-NLS-RFP, a DNA construct (D1-2NLS-RFP) was created to introduce a second NLS into the carboxyl tail of the dopamine D1 receptor by replacing the KKEEA (SEQ ID NO:171) sequence of the wild type D1 dopamine receptor with the NLS, KKKRK (SEQ ID NO:177).
HEK cells were transfected with DNA encoding this construct (D1-2NLS-RFP), and treated at intervals with the antagonist SCH-23390 (10 μM) as previously described. […] Control cells received no antagonist.

HA-D1-NLS = target: T8, HA-D1-NLS (Homo sapiens, UniProt P21728, A340R/D336K/F337K/R338F); assay: HA-D1-NLS cell surface receptor detected by fluorometry; type: cell-based; conditions: removal of SCH 23390 (0.5 micromolar) for the last hour, no agonist
T8 construct: MGYPYDVPDYARTLNTSAMDGTGLVV; expressed in transfected cells; host or cells: HEK cells
Text: Wells in a multi-well plate were coated with poly-L-ornithine and then plated with 50,000 cells per well. […] Following this, the cells were fixed with paraformaldehyde, and cell surface receptors were detected with a rat anti-HA antibody and then a goat anti-rat antibody conjugated to FITC. The fluorescent signal was detected by fluorometry (Cytofluor).
Wells in a multi-well plate were coated with poly-L-ornithine and then plated with 50,000 cells per well. […] Following this, the cells were fixed with paraformaldehyde, and cell surface receptors were detected with a rat anti-HA antibody and then a goat anti-rat antibody conjugated to FITC. The fluorescent signal was detected by fluorometry (Cytofluor). The results are the average of five wells per experimental condition.
HEK cells were transfected with HA-D1-NLS in a multi-well plate were coated with poly-L-ornithine at a concentration of 50,000 cells per well. […] Following this, the cells were fixed with paraformaldehyde, and cell surface receptors were detected with a rat anti-HA antibody and then a goat anti-rat antibody conjugated to FITC. The fluorescent signal was detected by fluorometry (Cytofluor). The results are the average of five wells per experimental condition.

D1-NLS2-GFP = D1-NLS2-GFP (Homo sapiens, UniProt P21728, A335P/A340K/D336K/F337K/F341V/K339R/R338K); conditions: 1 micromolar, 48 hrs
Text: Nuclei were visualised with DsRed-nuc (2 micrograms). Cells were examined by confocal microscopy.

D1-NLS-GFP [3] = target: T5, D1-NLS-GFP; assay: D1-NLS-GFP translocation, long-term agonist treatment, HEK cells; type: cell-based; conditions: agonist 10 micromolar, 48 hours
Method: The cells were examined by confocal microscopy.
HEK cells were transfected with a DNA construct encoding D1-NLS-GFP (1.5 micrograms of DNA), and incubated with the agonist pergolide (10 micromolar) for 48 hours. […] The cells were examined by confocal microscopy.
Control HEK cells were transfected with a DNA construct encoding D1-NLS-GFP (1.5 micrograms of DNA) and left untreated.

T5 sequence (P21728 whole entry D336K/F337K/R338F/A340R): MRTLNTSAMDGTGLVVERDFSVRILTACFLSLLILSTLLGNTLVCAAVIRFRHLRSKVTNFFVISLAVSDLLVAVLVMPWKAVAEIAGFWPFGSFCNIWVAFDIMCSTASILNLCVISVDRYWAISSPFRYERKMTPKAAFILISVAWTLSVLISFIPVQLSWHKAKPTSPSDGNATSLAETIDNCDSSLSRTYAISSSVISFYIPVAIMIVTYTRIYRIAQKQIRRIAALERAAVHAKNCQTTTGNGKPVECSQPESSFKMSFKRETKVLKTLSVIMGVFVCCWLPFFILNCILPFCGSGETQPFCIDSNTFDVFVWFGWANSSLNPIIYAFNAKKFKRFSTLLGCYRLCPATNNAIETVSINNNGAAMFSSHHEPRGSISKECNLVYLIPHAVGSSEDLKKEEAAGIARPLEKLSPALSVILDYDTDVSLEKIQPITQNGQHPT
T2 sequence (P14416 whole entry I431K/E432K/R434K/K435R): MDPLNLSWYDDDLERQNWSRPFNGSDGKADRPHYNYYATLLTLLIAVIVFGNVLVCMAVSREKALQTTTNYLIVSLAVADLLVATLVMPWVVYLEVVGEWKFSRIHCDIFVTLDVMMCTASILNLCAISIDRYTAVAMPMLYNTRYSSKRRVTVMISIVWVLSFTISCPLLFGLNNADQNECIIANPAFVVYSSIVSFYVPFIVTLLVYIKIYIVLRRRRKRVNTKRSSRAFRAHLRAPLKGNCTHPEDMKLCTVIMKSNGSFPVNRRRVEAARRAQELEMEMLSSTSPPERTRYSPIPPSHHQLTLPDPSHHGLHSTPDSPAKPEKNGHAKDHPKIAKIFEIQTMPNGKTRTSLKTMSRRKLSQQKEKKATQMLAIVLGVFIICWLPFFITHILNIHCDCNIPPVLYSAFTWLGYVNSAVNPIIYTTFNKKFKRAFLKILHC
T3 sequence (Q01959 whole entry Y578K/C581K/S582R): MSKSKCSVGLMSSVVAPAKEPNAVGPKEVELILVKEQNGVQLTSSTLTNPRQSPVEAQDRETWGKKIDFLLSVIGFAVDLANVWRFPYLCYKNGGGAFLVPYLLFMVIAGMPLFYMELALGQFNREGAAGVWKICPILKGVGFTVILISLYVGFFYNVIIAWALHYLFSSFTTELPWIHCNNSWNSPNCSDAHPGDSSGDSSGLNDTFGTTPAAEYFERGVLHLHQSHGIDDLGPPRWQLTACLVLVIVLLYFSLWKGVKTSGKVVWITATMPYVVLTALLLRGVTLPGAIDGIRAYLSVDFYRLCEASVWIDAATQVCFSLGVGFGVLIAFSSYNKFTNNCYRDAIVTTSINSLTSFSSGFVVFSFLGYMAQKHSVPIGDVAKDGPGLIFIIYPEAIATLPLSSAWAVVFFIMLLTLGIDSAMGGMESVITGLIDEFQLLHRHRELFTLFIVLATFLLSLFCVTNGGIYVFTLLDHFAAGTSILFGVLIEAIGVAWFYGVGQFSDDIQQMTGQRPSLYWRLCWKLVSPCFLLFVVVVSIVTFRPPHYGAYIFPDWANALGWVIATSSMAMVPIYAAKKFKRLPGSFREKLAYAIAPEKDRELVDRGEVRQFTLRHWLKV
Sequence of M1-NLS-GFP (P11229 whole entry A424K/R426K/D427R): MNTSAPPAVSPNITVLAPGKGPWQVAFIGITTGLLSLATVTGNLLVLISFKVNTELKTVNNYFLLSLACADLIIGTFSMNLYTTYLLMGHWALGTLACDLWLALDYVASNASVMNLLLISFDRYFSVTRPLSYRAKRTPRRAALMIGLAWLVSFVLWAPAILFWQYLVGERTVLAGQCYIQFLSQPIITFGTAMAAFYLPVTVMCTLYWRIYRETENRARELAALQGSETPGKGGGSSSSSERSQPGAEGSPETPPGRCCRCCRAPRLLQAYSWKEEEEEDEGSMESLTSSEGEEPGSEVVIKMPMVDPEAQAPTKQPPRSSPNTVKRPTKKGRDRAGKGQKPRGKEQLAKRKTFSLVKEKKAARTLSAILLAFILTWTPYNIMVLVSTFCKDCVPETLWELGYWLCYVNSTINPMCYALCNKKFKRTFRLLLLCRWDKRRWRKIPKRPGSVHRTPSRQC
T7 sequence (P21728 whole entry D336K/F337K/R338F/A340R/E404K/E405R/A406K): as the sequence (P21728 whole entry D336K/F337K/R338F/A340R) above, with E404K, E405R, A406K counted along it
Sequence of D1-NLS2-GFP (P21728 9-446 A335P/D336K/F337K/R338K/K339R/A340K/F341V limits assumed): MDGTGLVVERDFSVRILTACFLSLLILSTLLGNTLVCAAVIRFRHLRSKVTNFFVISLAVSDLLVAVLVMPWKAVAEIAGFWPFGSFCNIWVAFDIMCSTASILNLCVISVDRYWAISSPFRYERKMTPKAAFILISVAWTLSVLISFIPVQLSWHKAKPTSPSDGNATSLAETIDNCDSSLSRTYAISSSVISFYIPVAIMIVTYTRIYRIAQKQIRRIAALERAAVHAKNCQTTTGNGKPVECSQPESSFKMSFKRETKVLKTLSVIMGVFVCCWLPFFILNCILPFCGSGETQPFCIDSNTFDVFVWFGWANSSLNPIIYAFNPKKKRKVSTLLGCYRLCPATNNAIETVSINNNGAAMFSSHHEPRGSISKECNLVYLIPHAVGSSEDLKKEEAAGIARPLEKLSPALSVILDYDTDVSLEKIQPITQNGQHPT
Sequence of DAT-NLS-GFP (Q01959 whole entry Y578K/C581K/S582R): as the sequence (Q01959 whole entry Y578K/C581K/S582R) above
T4 sequence (P28222 whole entry E374K/D375K/Q378R): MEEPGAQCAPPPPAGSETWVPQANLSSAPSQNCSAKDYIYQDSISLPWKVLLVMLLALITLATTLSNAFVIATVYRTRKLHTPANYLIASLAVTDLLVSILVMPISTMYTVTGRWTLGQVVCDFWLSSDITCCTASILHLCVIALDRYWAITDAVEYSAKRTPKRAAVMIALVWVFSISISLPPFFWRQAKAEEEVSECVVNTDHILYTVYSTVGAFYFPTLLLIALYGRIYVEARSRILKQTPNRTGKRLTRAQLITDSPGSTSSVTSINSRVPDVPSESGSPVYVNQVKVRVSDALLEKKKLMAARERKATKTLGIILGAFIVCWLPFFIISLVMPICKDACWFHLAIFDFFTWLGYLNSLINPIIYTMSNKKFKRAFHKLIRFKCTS
T6 sequence (P21728 9-446 I49K/R50K/R52K/H53R limits assumed): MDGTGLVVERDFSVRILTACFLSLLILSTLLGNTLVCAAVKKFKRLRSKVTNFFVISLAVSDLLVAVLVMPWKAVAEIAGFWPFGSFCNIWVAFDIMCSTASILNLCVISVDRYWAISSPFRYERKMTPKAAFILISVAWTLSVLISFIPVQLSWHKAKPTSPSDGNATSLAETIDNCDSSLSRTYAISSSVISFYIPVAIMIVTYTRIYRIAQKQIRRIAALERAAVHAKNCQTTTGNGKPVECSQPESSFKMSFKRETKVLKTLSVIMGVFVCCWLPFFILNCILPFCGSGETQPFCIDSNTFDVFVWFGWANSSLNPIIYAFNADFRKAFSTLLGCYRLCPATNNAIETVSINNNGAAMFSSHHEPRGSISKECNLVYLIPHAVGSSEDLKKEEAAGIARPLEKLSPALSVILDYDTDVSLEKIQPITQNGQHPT
Sequence of D1-IC3-NLS-GFP (P21728 9-446 M262K/S263K limits assumed): as the sequence (P21728 9-446 I49K/R50K/R52K/H53R limits assumed) above, with K41I, K42R, K44R, R45H, M254K, S255K counted along it
T8 sequence (P21728 whole entry D336K/F337K/R338F/A340R): as the sequence (P21728 whole entry D336K/F337K/R338F/A340R) above
Sequence of mu and delta opioid receptors (P35372 whole entry): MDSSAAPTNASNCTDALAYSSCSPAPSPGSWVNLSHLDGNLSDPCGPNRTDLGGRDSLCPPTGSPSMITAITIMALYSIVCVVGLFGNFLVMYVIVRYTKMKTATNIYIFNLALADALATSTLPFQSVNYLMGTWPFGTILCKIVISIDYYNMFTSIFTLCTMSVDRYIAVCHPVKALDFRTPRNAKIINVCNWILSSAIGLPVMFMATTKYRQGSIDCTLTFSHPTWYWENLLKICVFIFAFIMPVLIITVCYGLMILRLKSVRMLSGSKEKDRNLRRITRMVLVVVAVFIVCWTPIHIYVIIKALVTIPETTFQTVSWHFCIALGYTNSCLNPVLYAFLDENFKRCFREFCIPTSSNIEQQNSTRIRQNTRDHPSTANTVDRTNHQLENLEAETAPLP
Sequence of mu and delta opioid receptors (P41143 whole entry): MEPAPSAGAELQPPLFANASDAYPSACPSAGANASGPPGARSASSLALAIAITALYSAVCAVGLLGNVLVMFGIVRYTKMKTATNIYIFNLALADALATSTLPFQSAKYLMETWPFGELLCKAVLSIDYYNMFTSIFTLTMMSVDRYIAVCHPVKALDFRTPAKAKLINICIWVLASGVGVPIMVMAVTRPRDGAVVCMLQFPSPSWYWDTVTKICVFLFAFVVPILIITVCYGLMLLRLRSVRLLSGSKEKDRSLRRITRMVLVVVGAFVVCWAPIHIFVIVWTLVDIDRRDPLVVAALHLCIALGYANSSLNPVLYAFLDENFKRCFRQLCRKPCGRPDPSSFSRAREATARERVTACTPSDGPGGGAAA

Compound: CC(C)(O)c1ccccc1CC[C@@H](SCC1(CC(=O)O)CC1)c1cccc(/C=C/c2ccc3ccc(Cl)cc3n2)c1 [montelukast]
- % cells with cell surface expression of receptor (Cys-LT2-NLS-GFP): 90%
- % cells with nuclear localisation of the receptor (Cys-LT2-NLS-GFP): 10%

Compound: C[C@@H](NC(=O)[C@@H](N)Cc1ccc(O)cc1)C(=O)NCC(=O)N(C)[C@@H](Cc1ccccc1)C(=O)NCCO [DAMGO]
- potency at co-expressed versus individual receptors [1]: reduced potency

Compound: iprotropium bromide
- % cells with receptor expression in the cytoplasm only (M1-NLS-GFP): 17%
- % cells with receptor expression in the nucleus (M1-NLS-GFP): 11%
- % cells with receptor expression on the cell surface (M1-NLS-GFP): 72%

Compound: (+)butaclamol
- % cells with cell surface labelling (D2-NLS-GFP): 90%
- % cells with cytoplasmic label (D2-NLS-GFP): 5%
- % cells with nuclear labelling (D2-NLS-GFP): 5%

Compound: COC(=O)[C@H]1[C@@H](OC(=O)c2ccccc2)C[C@@H]2CC[C@H]1N2C [cocaine]
- % cells with cell surface or cytoplasmic expression of DAT-NLS-RFP (DAT-NLS-RFP): 75%
- % cells with transporter expression in the nucleus and cytoplasm (DAT-NLS-RFP): 25%

Compound: CC[C@@H](CO)NC(=O)[C@@H]1C=C2c3cccc4c3c(cn4C)C[C@H]2N(C)C1 [methysergide]
- % cells with cell surface localisation (5HT1B-NLS-GFP): 62%
- % cells with receptor in the nucleus (5HT1B-NLS-GFP): 25%

Compound: CCN1CCC[C@H]1CNC(=O)c1c(O)c(Cl)cc(Cl)c1OC [raclopride]
- % cells with cell surface labelling (D2-NLS-GFP; 10 micromolar, 48 hrs): 80%
- % cells with cytoplasmic label (D2-NLS-GFP; 10 micromolar, 48 hrs): 15%
- % cells with nuclear labelling (D2-NLS-GFP; 10 micromolar, 48 hrs): 5%

Compound: CC(N)Cc1ccccc1 (stereo not drawn) [amphetamine]
- % cells with cell surface or cytoplasmic expression of DAT-NLS-RFP (DAT-NLS-RFP): 34%
- % cells with transporter expression in the nucleus and cytoplasm (DAT-NLS-RFP): 66%
- effect on the trafficking of the DAT-NLS-RFP to the nucleus (DAT-NLS-RFP): no inhibitory effect

Compound: OC1(c2ccc(Cl)cc2)c2ccccc2C2=NCCN21 (stereo not drawn) [mazindol]
- % cells with transporter expression in the nucleus and cytoplasm (DAT-NLS-GFP): 39%
- % cells with transporter expression on the cell surface and in cytoplasm (DAT-NLS-GFP): 61%

Compound: CN1CCc2cc(Cl)c(O)cc2[C@@H](c2ccccc2)C1 [SCH-23390]
- % cells receptor in nucleus (D1-NLS-GFP [2]; 0.2 μM): 19%
- % cells receptor on surface (D1-NLS-GFP [2]; 0.2 μM): 32%
- % cells receptor on surface and in nucleus (D1-NLS-GFP [2]; 0.2 μM): 49%
- % cells receptor in nucleus (D1-NLS-GFP [2]; 0.5 μM): 20%
- % cells receptor on surface (D1-NLS-GFP [2]; 0.5 μM): 36%
- % cells receptor on surface and in nucleus (D1-NLS-GFP [2]; 0.5 μM): 44%
- % cells receptor in nucleus (D1-NLS-GFP [2]; 1 μM): 15%
- % cells receptor on surface (D1-NLS-GFP [2]; 1 μM): 39%
- % cells receptor on surface and in nucleus (D1-NLS-GFP [2]; 1 μM): 46%
- % cells receptor in nucleus (D1-NLS-GFP [2]; 5 μM): 12%
- % cells receptor on surface (D1-NLS-GFP [2]; 5 μM): 46%
- % cells receptor on surface and in nucleus (D1-NLS-GFP [2]; 5 μM): 42%
- % cells receptor on surface (D1-NLS-GFP [2]; 10 μM, HEK cells): 58%
- % cells receptor on surface and in nucleus (D1-NLS-GFP [2]; 10 μM, HEK cells): 32%
- % cells with receptor in the nucleus (D1-IC1-NLS-GFP): 23%
- % cells with receptor on the cell surface or in the cytoplasm (D1-IC1-NLS-GFP): 77%
- % cells with receptor in the nucleus (D1-IC3-NLS-GFP): 84%
- % cells with receptor on the surface (D1-IC3-NLS-GFP): 15%
- % cells with cell surface label (D1-2NLS-RFP): 51%
- % cells with nuclear label (D1-2NLS-RFP): 49%
- loss of HA-D1-NLS receptors from the cell surface (HA-D1-NLS): 33%
- % cells with receptor expression in the nucleus (D1-NLS2-GFP): 22%
- % cells with receptor on the cell surface or in cytoplasm (D1-NLS2-GFP): 78%

Compound: CCCN1C[C@H](CSC)C[C@@H]2c3cccc4[nH]cc(c34)C[C@H]21 [perglolide, pergolide]
- % cells with receptor expression at the cell surface (D1-NLS-GFP [3]): 59%
